Patent US20230117034A1, “PYRAZOLOTRIAZINES” (Bayer Aktiengesellschaft, priority 2019, published 2023)

Experiments:
[1] = biological target: T1, CDK2/CycE (Homo sapiens, UniProt P24941); test: CDK2/CycE kinase assay (TR-FRET, 2 mM ATP); type: biochemical; details: 2 mM ATP (high ATP); median; read-out: CDK2/CyclinE, 2 mM ATP (high ATP), IC50 (median)
T1 construct: purchased ProQinase GmbH (Freiburg, Germany); host or cells: insect cells (Sf9)
Summary of the method: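 GST-tagged human CDK2 and CycE from Sf9 cells, about 10 ng/ml, pre-incubated 15 min at 22 °C with compound in Tris/HCl pH 8.0 buffer. Reaction with 2 mM ATP and 0.75 µM biotinylated peptide for 25 min at 22 °C. Phospho-RB antibody TR-FRET (665/620 nm ratio) read after 1 h; data normalised to no-inhibitor and no-enzyme controls.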

[2] = biological target: T2, CDK12 protein level in CAL-120 breast cancer cells (Homo sapiens, UniProt Q9NYV4); test: CDK12 protein level: Protein Simple (CDK12, CAL-120); type: cell-based; details: CAL-120 cells, 18 h with compound, CDK12/HSP90 peak area ratio vs vehicle, median, read-out: CDK12 protein level in CAL-120 breast ca cells, DC50-[mol/l] (median)
T2 construct: endogenous in cells; host or cells: CAL-120 human breast cancer cells (DSMZ ACC 459)
Description: CAL-120 human breast cancer cells (DSMZ ACC 459) were seeded at 300,000 cells/well in 6-well plates containing 2 mL of growth medium (DMEM, 10% FCS, glutamine) and incubated for 24 h at 37° C. in an humidified incubator. Test compounds were added at various concentrations, control wells received solvent (DMSO), and the plates were incubated for another 18 h at 37° C. Cells were washed 2 times with PBS and lysed in 75 microL lysis buffer (MSD-Puffer (MSD, #R60TX-2), +1% 505S+PhosSTOP (Roche #04906837001)+complete mini (Roche #04693159001)) by scraping. The lysates were pushed 2 times through Qiashedders followed by centrifugation at 14,000 rpm for 30-50 sec. The supernatant was stored at −20° C. Proteins were separated by applying 0.4 microgramms of protein lysate to Protein Simple 66-440 kDa (Protein Simple #SM-S002) size assay columns on a PEGGY SUE or SALLY SUE equipment according to the supplier's manual. CDK12 and HSP90 (loading control) were detected using anti-human CDK12 antibody (Cell Signaling Technologies (CST) #11793) at 1:25 dilution and anti-human HSP90 antibody (CST #4877) at 1:5,000 dilution. CDK12 and HSP90 peak areas were determined using Protein Simple Compass software. Ratio of CDK12/HSP90 peak areas were calculated for each sample, and […] values (degrading concentration to achieve 50% reduction relative to vehicle treated control) were determined by means of a 4 parameter fit.

[3] = system: BRCA1 mRNA expression in CAL-120 cells; test: qRT-PCR assay: BRCA1 mRNA expression in CAL-120; type: cell-based; details: Homo sapiens; Inhibition of BRCA1 mRNA expression in CAL-120 cells; median; read-out: RTqPCR-CAL-120, IC50, BRCA1 (median)
Description: 3. qRT-PCR Assay: BRCA, ATR, MCL1 in MDA-MB-231, CAL-120
Tissue cultured human MDA-MB-231 human breast cancer cells were plated in 500 microL per well at 200,000 cells/well in a 24 well microtiter plate. After 24 h, the cells were exposed continuously for 24 h to test substances (substances were added with Tecan HP 0300 Dispenser). RNA was prepared using Qiagen RNeasy MiniKit (#74106), RNA was quantified using a NanoDrop Equipment, and 600 nano gamms of RNA was coverted to cDNA using a SuperScript VILO kit (Thermofisher #11755050) followed by qPCR amplification. BRCA1 and ATR gene expression was measured by RT-qPCR and normalised to GAPDH housekeeping gene expression. qPCR primer sets have been purchased from Thermo Fisher Scientific/Applied Biosystems: BRCA1, #Hs 01556193; ATR, #Hs 00992123; GAPDH, #Hs 03929097.

T2 sequence (Q9NYV4 whole entry): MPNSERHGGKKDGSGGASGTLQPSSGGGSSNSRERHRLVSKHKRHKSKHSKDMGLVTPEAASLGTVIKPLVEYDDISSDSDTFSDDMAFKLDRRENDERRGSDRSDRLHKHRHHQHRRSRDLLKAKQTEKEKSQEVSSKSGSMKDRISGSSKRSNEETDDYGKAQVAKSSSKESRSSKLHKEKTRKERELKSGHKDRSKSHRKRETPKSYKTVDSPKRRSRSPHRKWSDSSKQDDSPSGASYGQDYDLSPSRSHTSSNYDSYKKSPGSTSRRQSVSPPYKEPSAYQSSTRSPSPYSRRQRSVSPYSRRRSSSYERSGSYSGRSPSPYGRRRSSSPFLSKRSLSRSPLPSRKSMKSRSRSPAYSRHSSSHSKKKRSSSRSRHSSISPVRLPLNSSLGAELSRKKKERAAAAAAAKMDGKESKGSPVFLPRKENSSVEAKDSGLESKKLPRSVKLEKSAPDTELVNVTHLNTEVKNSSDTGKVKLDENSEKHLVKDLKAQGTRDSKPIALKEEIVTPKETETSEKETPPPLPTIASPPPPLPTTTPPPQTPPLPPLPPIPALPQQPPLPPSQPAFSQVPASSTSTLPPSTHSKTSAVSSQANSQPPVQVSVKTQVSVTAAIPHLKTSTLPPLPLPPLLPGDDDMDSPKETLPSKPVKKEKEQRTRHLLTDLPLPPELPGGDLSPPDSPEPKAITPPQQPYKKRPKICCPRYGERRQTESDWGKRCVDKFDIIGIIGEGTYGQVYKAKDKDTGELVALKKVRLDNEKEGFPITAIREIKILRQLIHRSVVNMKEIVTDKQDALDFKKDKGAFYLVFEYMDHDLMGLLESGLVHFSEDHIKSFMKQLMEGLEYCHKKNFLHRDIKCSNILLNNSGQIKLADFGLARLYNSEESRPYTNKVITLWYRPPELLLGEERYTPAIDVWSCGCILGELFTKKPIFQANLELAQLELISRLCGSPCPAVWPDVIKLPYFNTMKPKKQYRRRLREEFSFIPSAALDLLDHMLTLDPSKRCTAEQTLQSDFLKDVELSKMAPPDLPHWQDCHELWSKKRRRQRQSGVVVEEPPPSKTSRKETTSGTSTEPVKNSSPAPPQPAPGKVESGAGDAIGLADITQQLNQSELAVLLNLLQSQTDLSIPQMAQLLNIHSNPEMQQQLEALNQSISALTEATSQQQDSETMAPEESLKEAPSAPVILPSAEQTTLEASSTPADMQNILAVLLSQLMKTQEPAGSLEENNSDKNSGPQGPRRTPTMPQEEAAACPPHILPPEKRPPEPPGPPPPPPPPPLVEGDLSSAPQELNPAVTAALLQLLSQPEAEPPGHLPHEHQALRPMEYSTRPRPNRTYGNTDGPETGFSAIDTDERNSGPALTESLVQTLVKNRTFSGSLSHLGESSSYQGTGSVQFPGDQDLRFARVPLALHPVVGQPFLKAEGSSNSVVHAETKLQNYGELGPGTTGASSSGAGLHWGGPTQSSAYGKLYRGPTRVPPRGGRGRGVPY
T2 sequence (O75909 whole entry partner): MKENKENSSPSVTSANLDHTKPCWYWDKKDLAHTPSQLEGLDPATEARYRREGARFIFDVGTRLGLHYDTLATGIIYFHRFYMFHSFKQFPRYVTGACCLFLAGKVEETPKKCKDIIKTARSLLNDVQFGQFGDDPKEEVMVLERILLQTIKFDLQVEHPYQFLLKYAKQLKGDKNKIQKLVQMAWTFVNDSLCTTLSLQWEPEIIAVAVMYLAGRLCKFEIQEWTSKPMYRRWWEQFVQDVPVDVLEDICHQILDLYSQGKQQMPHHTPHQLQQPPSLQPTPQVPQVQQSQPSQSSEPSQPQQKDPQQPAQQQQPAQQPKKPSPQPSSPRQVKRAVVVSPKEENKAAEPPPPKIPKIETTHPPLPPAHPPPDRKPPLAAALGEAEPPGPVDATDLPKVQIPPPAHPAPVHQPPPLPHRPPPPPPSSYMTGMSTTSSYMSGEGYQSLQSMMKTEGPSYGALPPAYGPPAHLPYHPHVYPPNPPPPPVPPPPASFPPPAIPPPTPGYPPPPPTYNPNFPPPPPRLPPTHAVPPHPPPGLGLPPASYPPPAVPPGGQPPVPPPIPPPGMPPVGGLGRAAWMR

Row | SMILES | IC50 [1] | DC50 [2] | IC50 [3]
1 | OC1CCCN(c2nc(NCc3nc4ccccc4[nH]3)n3ncc(Br)c3n2)C1 (racemic) [Example 16, (rac)-1-(4-{[(1H-benzimidazol-2-yl)methyl]amino}-8-bromopyrazolo[1,5-a][1,3,5]triazin-2-yl)piperidin-3-ol] | 1.5 µM | 0.0581 µM | –
2 | C[C@H]1CN(c2nc(NCc3nc4ccccc4[nH]3)n3ncc(Br)c3n2)CCN1 [Example 169, N-[(1H-benzimidazol-2-yl)methyl]-8-bromo-2-[(3S)-3-methylpiperazin-1-yl]pyrazolo[1,5-a][1,3,5]triazin-4-amine] | 13.3 µM | 0.00104 µM | –
3 | CN1CCCC2CN(c3nc(NCc4nc5ccccc5[nH]4)n4ncc(Br)c4n3)CC21 (centres unmarked) [Example 231, N-[(1H-benzimidazol-2-yl)methyl]-8-bromo-2-(1-methyloctahydro-6H-pyrrolo[3,4-b]pyridin-6-yl)pyrazolo[1,5-a][1,3,5]triazin-4-amine] | 12.4 µM | – | –
4 | Brc1cnn2c(NCc3nc4ccccc4[nH]3)nc(N3CC4CCC(C3)N4)nc12 [Example 232, N-(1H-benzimidazol-2-ylmethyl)-8-bromo-2-(3,8-diazabicyclo[3.2.1]octan-3-yl)pyrazolo[1,5-a][1,3,5]triazin-4-amine] | 2.87 µM | – | –
5 | CCN(C)c1nc(NCc2nc3ccccc3[nH]2)n2ncc(Br)c2n1 [Example 233, N4-(1H-benzimidazol-2-ylmethyl)-8-bromo-N2-ethyl-N2-methyl-pyrazolo[1,5-a][1,3,5]triazine-2,4-diamine] | 5.35 µM | – | –
6 | O[C@H]1C[C@@H](Nc2nc(NCc3nc4ccccc4[nH]3)n3ncc(Br)c3n2)C1 [Example 234, cis-3-[(4-{[(1H-benzimidazol-2-yl)methyl]amino}-8-bromopyrazolo[1,5-a][1,3,5]triazin-2-yl)amino]cyclobutan-1-ol] | 2.73 µM | – | –
7 | CN(CCO)c1nc(NCc2nc3ccccc3[nH]2)n2ncc(Br)c2n1 [Example 237, 2-[(4-{[(1H-benzimidazol-2-yl)methyl]amino}-8-bromopyrazolo[1,5-a][1,3,5]triazin-2-yl)(methyl)amino]ethan-1-ol] | 4.94 µM | – | –
8 | CN(CC(C)(C)O)c1nc(NCc2nc3ccccc3[nH]2)n2ncc(Br)c2n1 [Example 238, 1-[(4-{[(1H-benzimidazol-2-yl)methyl]amino}-8-bromopyrazolo[1,5-a][1,3,5]triazin-2-yl)(methyl)amino]-2-methylpropan-2-ol] | 1.86 µM | – | –
9 | CN(CCN1CCCC1)c1nc(NCc2nc3ccccc3[nH]2)n2ncc(Br)c2n1 [Example 239, N4-(1H-benzimidazol-2-ylmethyl)-8-bromo-N2-methyl-N2-(2-pyrrolidin-1-ylethyl)pyrazolo[1,5-a][1,3,5]triazine-2,4-diamine] | > 20 µM | – | –
10 | FC(F)(F)c1cnn2c(NCc3nc4ccccc4[nH]3)nc(N3CCOCC3)nc12 [Example 241, N-[(1H-benzimidazol-2-yl)methyl]-2-(morpholin-4-yl)-8-(trifluoromethyl) pyrazolo[1,5-a][1,3,5]triazin-4-amine] | 12 µM | 0.00729 µM | –
11 | Cc1cc(-c2cnn3c(NCc4nc5ccccc5[nH]4)nc(N4CCN(C)CC4)nc23)ccn1 [Example 243, N-[(1H-benzimidazol-2-yl)methyl]-2-(4-methylpiperazin-1-yl)-8-(2-methylpyridin-4-yl)pyrazolo[1,5-a][1,3,5]triazin-4-amine] | > 20 µM | – | –

The remaining lines, values ahead:

Row | IC50 [1] | DC50 [2] | IC50 [3] | SMILES
12 | > 20 µM | 0.00938 µM | – | CC(C)c1cnn2c(NCc3nc4ccccc4[nH]3)nc(Nc3ccncc3)nc12 [Example 14, N^4-[(1H-benzimidazol-2-yl)methyl]-8-(propan-2-yl)-N^2-(pyridin-4-yl)pyrazolo[1,5-a][1,3,5]triazine-2,4-diamine]
13 | 6.52 µM | 0.00298 µM | 0.0298 µM | Clc1cnn2c(NCc3nc4ccccc4[nH]3)nc(N3CCOCC3)nc12 [Example 15, N-[(1H-benzimidazol-2-yl)methyl]-8-chloro-2-(morpholin-4-yl)pyrazolo[1,5-a][1,3,5]triazin-4-amine]
14 | > 20 µM | 0.000307 µM | – | Fc1ccc2[nH]c(CNc3nc(N4CCNCC4)nc4c(C5CC5)cnn34)nc2c1 [Example 190, 8-cyclopropyl-N-[(5-fluoro-1H-benzimidazol-2-yl)methyl]-2-(piperazin-1-yl)pyrazolo[1,5-a][1,3,5]triazin-4-amine]
15 | 10.1 µM | – | – | COCCNc1nc(NCc2nc3ccccc3[nH]2)n2ncc(Br)c2n1 [Example 230, N4-(1H-benzimidazol-2-ylmethyl)-8-bromo-N2-(2-methoxyethyl)pyrazolo[1,5-a][1,3,5]triazine-2,4-diamine]
16 | > 20 µM | – | – | Brc1cnn2c(NCc3nc4ccccc4[nH]3)nc(NCCN3CCCC3)nc12 [Example 235, N4-(1H-benzimidazol-2-ylmethyl)-8-bromo-N2-(2-pyrrolidin-1-ylethyl)pyrazolo[1,5-a][1,3,5]triazine-2,4-diamine]
17 | 12.8 µM | – | – | COC(C)(C)CNc1nc(NCc2nc3ccccc3[nH]2)n2ncc(Br)c2n1 [Example 236, N4-(1H-benzimidazol-2-ylmethyl)-8-bromo-N2-(2-methoxy-2-methyl-propyl)pyrazolo[1,5-a][1,3,5]triazine-2,4-diamine]
18 | 15.5 µM | – | – | CN1CC2CN(c3nc(NCc4nc5ccccc5[nH]4)n4ncc(Br)c4n3)CC2C1 (centres unmarked) [Example 240, N-(1H-benzimidazol-2-ylmethyl)-8-bromo-2-(2-methyl-1,3,3a,4,6,6a-hexahydropyrrolo[3,4-c]pyrrol-5-yl)pyrazolo[1,5-a][1,3,5]triazin-4-amine]
19 | > 20 µM | – | – | CN1CCN(c2nc(NCc3nc4ccccc4[nH]3)n3ncc(-c4ccncc4)c3n2)CC1 [Example 242, N-[(1H-benzimidazol-2-yl)methyl]-2-(4-methylpiperazin-1-yl)-8-(pyridin-4-yl)pyrazolo[1,5-a][1,3,5]triazin-4-amine]
